This is an account of results in patent publication US20230190947A1, “Hemoglobin-Targeted Drug Delivery For The Treatment of Cancer” (Therapure Biopharma Inc., priority 2016, published 2023).

Data set [1] deals with human colon cancer. The experiment in a line: Human colon cancer model: mice orthotopically implanted with GFP-transfected colon cancer tumor fragments. Type of data set: in vivo. The method, then:
A study testing Hb-FUdR in mice orthotopically implanted with tumor fragments derived from colon cancer cells (transfected with green fluorescence protein for in-life tumor visualization was conducted as follows:
(§1) Study design: Fifty (50) tumor-bearing mice were randomly divided into five groups with ten (10) mice per group. Animals (10 mice per group) were treated with Hb-FUdR at 6, 32, and 161 mg Hb/kg (0.15, 0.74, and 3.7 mg FUdR/kg) twice weekly via intravenous injection (tail vein) at 5 mL/kg. Control untreated animals were treated with PBS at 5 mL/kg. Control FUdR treated animals were treated with 3.7 mg FUdR/kg. Study endpoint: The study was terminated 47 days post tumor inoculation. All remaining mice in each group were sacrificed at this time point. All animals in the PBS treated group and approximately 50% of animals in other treated groups died before the study endpoint. Therefore, survival time between groups was considered one of the criteria to assess the efficacy of the test agents. Primary tumors were excised and weighted at necropsy for subsequent analysis.
The anti-tumor efficacy of Hb-FUdR against the implanted human colon cancer was evaluated by comparing the primary tumor sizes measured twenty-one days after treatment initiation, and the differences in survival time between the Hb-FUdR treated and PBS control groups.

On the set-up of data set [2]: species or system mice. To be noted: mouse, in vivo. How it is done:
as §1
[…]. […] Other symptoms of related toxicity were absent by gross observation.

For data set [3], the system named is HCC. The following applies: SHARP trial; vs. 7.9 months; cited from earlier work.
The mark [4] stands for this setting: Hb 0 mg/kg, FUdR 3.7 mg/kg (free drug), 9 mice evaluated.

As for `O=c1[nH]c(=O)n([C@H]2C[C@H](O)[C@@H](CO)O2)cc1F` [FUdR, floxuridine], in data set [1] (setting [4]), the “No. of mice with L.N. met.” value is 6 and the “No. of mice with liver met.” value came to 4. The compound further returned a Mean survival time in data set [1] (Hb 0 mg/kg, FUdR 3.7 mg/kg (free drug), study terminated 47 days post tumor inoculation) of 43.9 days. The compound further had an Average tumor volume in data set [1] (Hb 0 mg/kg, FUdR 3.7 mg/kg (free drug), twenty-one days after treatment initiation) of 254.58 ± 196.74 mm^3. For the same compound, in data set [1] (summary statement), the “Survival time of the treated mice” value was “significantly prolonged survival time”. In data set [2], the Toxicity result is “without obvious toxicity”.

Regarding `CNC(=O)c1cc(Oc2ccc(NC(=O)Nc3ccc(Cl)c(C(F)(F)F)c3)cc2)ccn1` [Sorafenib], the Overall survival in data set [3] is recorded as 10.7 months.
